What was measured:
[1] = tested on: spontaneously hypertensive rats (SHRs); assay: Blood tests (complete blood cell count, liver function) in SHRs after dosing; format: in vivo, rat; settings: for platelets count (PLC) or white blood cell counts (WBC): significant versus control
Procedure: (§1) The animal model used in this example or the following examples is illustrated as follows. The Institutional Animal Care and Use Committee of the Fu Jen Catholic University, New Taipei, Taiwan (Approval No A10660), approved all of the animal procedures and experimental protocols. Male 16-week-old SHRs (body weight range: 350-370 g) were purchased from the National Laboratory Animal Center, Taipei, Taiwan. The animals were housed at a temperature of 21° C. under a 12 h light/dark cycle and fed a regular pellet diet. The animals were divided into three main groups—the Y16 group, the Rhosin group, and the Y16+Rhosin group. Each group was further divided into several subgroups according to the administered Y16 and Rhosin dose. Their concentrations are listed below: Y16 group: 0.2 mg/kg, 1 mg/kg, 5 mg/kg, 10 mg/kg, 20 mg/kg; Rhosin group: 5 mg/kg, 10 mg/kg, 20 mg/kg; Y16+Rhosin group: (Y16, 3 mg+Rhosin, 7 mg)/kg, (Y16, 5 mg+Rhosin, 10 mg)/kg.
(§2) The procedure of physiological signals recording and blood tests used in this example or the following examples is as follows. The rats were anesthetized with Zoletil 50 (30 mg/kg, intraperitoneal injection) and then attached to a physiological signal recording device. The Y16 and Rhosin were administered to them by intravenous injection. Their electrocardiography (ECG), heart rate (HR), and blood pressure (BP) measurements were taken for 90 minutes. After observing and recording the physiological signals, blood was drawn from the rats in an appropriate test tube and stored for subsequent tests for complete blood cell count, liver function and renal function. The rats were then sacrificed. Their heart, lungs, liver, and kidneys were removed and stored in paraformaldehyde for further histological examinations.
The animal model and experimental procedure of this example are the same as those described in Example 6. To observe whether the use of Y16 or Rhosin might have adverse effects or even harm to the animals, the blood of rats was drawn for the blood test after collecting the required physiological signals.

[2] = tested on: myosin phosphatase target subunit 1 (MYPT1) phosphorylation; assay: MYPT1 phosphorylation by Western blot in Ang II-stimulated SHR VSMCs; format: cell-based, rat
Text: (§3) The culture procedure of the primary cultured vascular smooth muscle cells (VSMCs) used in this example or the following examples is as follows. SHRs were anesthetized with Zoletil 50, and the thoracic aortas were immediately excised. The samples were then carefully cleaned of connective tissue and adherent fat. Each isolated aorta was cut open longitudinally, followed by endothelial removal by gently grazing the intimal surface. The denuded aortas were cut into approximately 2 mm^2 sections and then placed with the intimal side down. The M199 medium supplemented with 20% fetal bovine serum and antibiotics (100 U/ml penicillin and 100 μg/ml streptomycin) were then gently added to cover the tissues without disturbing the orientation of the explants. VSMCs were allowed to grow out from the explants for 7-10 days culture, and the tissues were removed.
The treatment method of the small molecule compounds used in this example or the following examples is as follows. Small molecule compounds were dissolved in pure water to test their effects on the VSMCs. Different concentrations of Y16 or the combination of Y16+Rhosin were administered for 24 hours, followed by stimulation with 10^−7M angiotensin II (Ang II) for 10 min. The Y16 concentrations used were as follows: 1 μM, 2.5 μM, 5 μM, 10 μM, 30 μM, 50 μM.
The procedure of cell harvest and protein extraction used in this example or the following examples is as follows. Culture dishes were placed on ice and washed twice with ice-cold phosphate-buffered saline (PBS). All subsequent procedures were performed over ice. […] The protein concentrations were determined using a BSA Protein Assay kit.
The procedure of Western blot analysis used in this example or the following examples is as follows. […] Signals were visualized using a UVP Imaging System (UVP) or with X-ray film, and the results were expressed as the densitometric ratio of target protein/GAPDH or phosphor-MYPT1/total-MYPT1. […]

SHR primary VSMCs = assay: MTT assay for cell viability of SHR primary VSMCs; format: cell-based, rat; settings: 1, 2.5, 5, 10, 30, or 50 μmol/L Y16, 24 hours
Procedure: The procedure of 3-(4,5-dimethylthiazol-2-yl)-2,5-diphenyltetrazolium bromide (MTT) assay for cell viability used in this example is as follows. The cytotoxicity results for Y16 or Rhosin were determined using an MTT-based in vitro assay. Briefly, the media from the cell cultures was discarded and carefully aspirated. Next, 50 μL of serum-free media and 50 μL of MTT solution were added into each well. The plate was then incubated at 37° C. for 3 hours. After incubation, 150 μL of MTT solvent (4 mM HCl, 0.1% NP40 in isopropanol) was added into each well. The plate was then wrapped in foil and shaken on an orbital shaker for 15 minutes, and the absorbance was read at OD=590 nm.

LARG-RhoA interaction = LARG-RhoA interaction by co-immunoprecipitation and Western blot in Ang II-stimulated SHR VSMCs; format: cell-based, rat
Text: as §3
The treatment method of the small molecule compounds used in this example or the following examples is as follows. Small molecule compounds were dissolved in pure water to test their effects on the VSMCs. […]
The procedure of cell harvest and protein extraction used in this example or the following examples is as follows. […] The protein concentrations were determined using a BSA Protein Assay kit. […]

[3] = tested on: spontaneously hypertensive rats (SHRs); assay: Physiological signals recording (BP, HR) in anesthetized SHRs after intravenous injection; format: in vivo, rat; settings: for decrease of BP: versus 0 min
Text: According to the present invention, the statistical analysis used in the following examples is described as follows. For the physiological signals recording, the data from different time intervals of each rat was compared with that from before Y16 and Rhosin administration. Considering the differences of physiological conditions among individuals, the BP and HR are not calculated by the absolute value measured, but by the percentage of the BP or HR measured at each time point relative to those measured before administration (0 minutes). All data were representative of at least four independent experiments.
as §1, §2

[4] = tested on: spontaneously hypertensive rats (SHRs); assay: Histological examination (HE) of heart, liver, lung and kidney of SHRs; format: in vivo, rat; settings: doses used in the experiments
Procedure: as §2
The procedure of histological examination used in this example is as follows. The tissues were fixed in 4% paraformaldehyde overnight and then embedded in paraffin for histological examination. The transverse sections (4 μm) were incubated at 75˜85° C. for 10 minutes, followed by stained with hematoxylin/eosin (HE), and examined under a light microscope. Severity of lesions was graded according to the methods described by Shackelford et al. (2002). […]

Cc1cccc(COc2cccc(/C=C3\C(=O)NN(c4ccccc4)C3=O)c2)c1 [Y16, (E)-4-(3-(3-methylbenzyloxy)benzylidene)-1-phenylpyrazolidine-3,5-dione]
platelets count (PLC) or white blood cell counts (WBC) ([1]; 0.2 mg/kg iv): slightly high
platelets count (PLC) or white blood cell counts (WBC) ([1]; 1 mg/kg iv): slightly high
abnormalities regarding complete blood cell count and liver function ([1]; doses used in the experiments, iv): did not cause any overt abnormalities
phospho-MYPT1 normalized to total-MYPT1 ([2]; 5 μM Y16, 24 h, then 10^−7M Ang II 10 min, control 0.994±0.048, P=0.041): 0.642±0.199
inhibition of MYPT1 phosphorylation ([2]; Y16 1-50 μM, 24 h): dose-dependent inhibition
working concentrations required for the effective inhibition of MYPT1 phosphorylation ([2]; lowest concentration with statistically significant difference): 5 µM
effect on the growth (cell viability) of SHR VSMCs (SHR primary VSMCs): no conspicuous effect on the growth
LARG-RhoA interaction, relative amount of RhoA normalized to GAPDH (LARG-RhoA interaction; 50 μM Y16, 24 h, then 10^−7M Ang II 10 min, control 0.939±0.121, p<0.001): 0.469±0.074
inhibition of LARG-RhoA complex formation induced by Ang II (LARG-RhoA interaction; Y16 1-50 μM, 24 h): dose-dependently inhibited
effect on BP ([3]; 0.2 mg/kg iv): no effects on BP
effect on BP ([3]; 1 mg/kg iv): no effects on BP
duration of BP decrease ([3]; 5 mg/kg iv): 30 min
decrease of BP ([3]; 5 mg/kg iv): 21%
BP as percentage of BP before administration (0 min) ([3]; 5 mg/kg iv, p=0.0081): 79%±13%
duration of BP decrease ([3]; 10 mg/kg iv): over 60 minutes
decrease of BP ([3]; 10 mg/kg iv): 21%
BP as percentage of BP before administration (0 min) ([3]; 10 mg/kg iv, p=0.0007): 79%±12%
duration of BP decrease ([3]; 20 mg/kg iv): over 60 minutes
BP as percentage of BP before administration (0 min) ([3]; 20 mg/kg iv, 20 minutes, p=0.0187): 58%±8%
reduction of HR ([3]; 20 mg/kg iv, for 30 minutes, not statistically significant): 16%
maximum blood pressure reduction effect ([3]; 20 mg/kg iv, in 20 minutes): 42%
HR as percentage of HR before administration (0 min) ([3]; 20 mg/kg iv, p=0.1067): 84%±8%
injuries by histological analyses of heart, liver, lungs, and kidneys [4]: did not cause any overt injuries
